From ChEMBL document CHEMBL5331092, “PROTACS: A technology with a gold rush-like atmosphere” (Eur J Med Chem, 2023)
Each block holds one compound with its values, some of them ahead of it.

How the values were obtained:
[1] = target: T1, Protein cereblon/Estrogen receptor (Homo sapiens, UniProt P03372+Q96SW2); assay: Protac activity at CRBN E3 ligase/Estrogen receptor in human MCF7 cells assessed maximum degradation at 1.5 uM measured upto 24 hrs by ELISA method relative to control; type: cell-based
Target sequence in this assay (P03372 whole entry, looked up): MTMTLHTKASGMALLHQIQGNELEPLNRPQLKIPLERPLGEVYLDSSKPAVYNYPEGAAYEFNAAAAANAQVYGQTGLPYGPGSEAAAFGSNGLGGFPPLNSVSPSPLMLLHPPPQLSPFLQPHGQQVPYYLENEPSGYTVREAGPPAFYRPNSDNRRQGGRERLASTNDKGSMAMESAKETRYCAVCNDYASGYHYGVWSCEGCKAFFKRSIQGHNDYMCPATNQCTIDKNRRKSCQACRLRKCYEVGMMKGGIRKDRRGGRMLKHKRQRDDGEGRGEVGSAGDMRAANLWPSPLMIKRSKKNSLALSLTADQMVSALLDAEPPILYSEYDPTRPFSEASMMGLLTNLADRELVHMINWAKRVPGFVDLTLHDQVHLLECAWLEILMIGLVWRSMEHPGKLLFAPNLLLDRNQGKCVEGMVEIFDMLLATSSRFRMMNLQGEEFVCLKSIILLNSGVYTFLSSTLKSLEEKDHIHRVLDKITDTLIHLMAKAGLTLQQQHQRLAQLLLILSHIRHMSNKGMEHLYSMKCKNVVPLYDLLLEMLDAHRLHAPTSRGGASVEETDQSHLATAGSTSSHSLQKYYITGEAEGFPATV
Target sequence in this assay (Q96SW2 whole entry, looked up): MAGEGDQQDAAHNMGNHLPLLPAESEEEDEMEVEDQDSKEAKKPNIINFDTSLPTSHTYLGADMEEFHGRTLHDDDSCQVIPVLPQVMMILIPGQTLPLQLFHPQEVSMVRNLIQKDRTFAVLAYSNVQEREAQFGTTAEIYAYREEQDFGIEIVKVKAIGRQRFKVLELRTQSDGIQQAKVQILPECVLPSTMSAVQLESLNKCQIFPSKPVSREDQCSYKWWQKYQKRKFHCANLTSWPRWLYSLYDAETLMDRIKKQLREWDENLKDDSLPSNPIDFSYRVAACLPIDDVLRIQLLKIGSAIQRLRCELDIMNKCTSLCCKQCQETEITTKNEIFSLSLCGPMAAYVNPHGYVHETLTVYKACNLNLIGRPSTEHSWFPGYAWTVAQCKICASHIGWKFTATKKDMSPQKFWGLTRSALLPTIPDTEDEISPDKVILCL

[2] = target: T1, Protein cereblon/Estrogen receptor; assay: Protac activity at CRBN E3 ligase/Estrogen receptor in human T47D cells assessed maximum degradation at 1.5 uM measured upto 24 hrs by ELISA method relative to control; type: cell-based
Target sequence in this assay (P03372 whole entry, looked up): as the sequence (P03372 whole entry, looked up) above
Target sequence in this assay (Q96SW2 whole entry, looked up): as the sequence (Q96SW2 whole entry, looked up) above

[3] = target: T1, Protein cereblon/Estrogen receptor; assay: Protac activity at CRBN E3 ligase/Estrogen receptor in human MCF7 cells assessed as induction of estrogen receptor degradation measured upto 24 hrs by ELISA method; type: cell-based
Target sequence in this assay (P03372 whole entry): as the sequence (P03372 whole entry, looked up) above
Target sequence in this assay (Q96SW2 whole entry): as the sequence (Q96SW2 whole entry, looked up) above

[4] = target: T1, Protein cereblon/Estrogen receptor; assay: Protac activity at CRBN E3 ligase/Estrogen receptor in human T47D cells assessed as induction of estrogen receptor degradation measured upto 24 hrs by ELISA method; type: cell-based
Target sequence in this assay (P03372 whole entry): as the sequence (P03372 whole entry, looked up) above
Target sequence in this assay (Q96SW2 whole entry): as the sequence (Q96SW2 whole entry, looked up) above

[5] = target: Protein cereblon/Focal adhesion kinase 1 (Homo sapiens) (UniProt Q05397+Q96SW2); assay: Protac activity at CRBN E3 ligase/FAK (unknown origin) assessed as […] FAK degradation at 10 nM relative to control; type: protein assay; design: scale not given: the % may be the effect or the level left
Sequence of Protein cereblon/Focal adhesion kinase 1 (Homo sapiens) (Q05397 2-1052 limits assumed): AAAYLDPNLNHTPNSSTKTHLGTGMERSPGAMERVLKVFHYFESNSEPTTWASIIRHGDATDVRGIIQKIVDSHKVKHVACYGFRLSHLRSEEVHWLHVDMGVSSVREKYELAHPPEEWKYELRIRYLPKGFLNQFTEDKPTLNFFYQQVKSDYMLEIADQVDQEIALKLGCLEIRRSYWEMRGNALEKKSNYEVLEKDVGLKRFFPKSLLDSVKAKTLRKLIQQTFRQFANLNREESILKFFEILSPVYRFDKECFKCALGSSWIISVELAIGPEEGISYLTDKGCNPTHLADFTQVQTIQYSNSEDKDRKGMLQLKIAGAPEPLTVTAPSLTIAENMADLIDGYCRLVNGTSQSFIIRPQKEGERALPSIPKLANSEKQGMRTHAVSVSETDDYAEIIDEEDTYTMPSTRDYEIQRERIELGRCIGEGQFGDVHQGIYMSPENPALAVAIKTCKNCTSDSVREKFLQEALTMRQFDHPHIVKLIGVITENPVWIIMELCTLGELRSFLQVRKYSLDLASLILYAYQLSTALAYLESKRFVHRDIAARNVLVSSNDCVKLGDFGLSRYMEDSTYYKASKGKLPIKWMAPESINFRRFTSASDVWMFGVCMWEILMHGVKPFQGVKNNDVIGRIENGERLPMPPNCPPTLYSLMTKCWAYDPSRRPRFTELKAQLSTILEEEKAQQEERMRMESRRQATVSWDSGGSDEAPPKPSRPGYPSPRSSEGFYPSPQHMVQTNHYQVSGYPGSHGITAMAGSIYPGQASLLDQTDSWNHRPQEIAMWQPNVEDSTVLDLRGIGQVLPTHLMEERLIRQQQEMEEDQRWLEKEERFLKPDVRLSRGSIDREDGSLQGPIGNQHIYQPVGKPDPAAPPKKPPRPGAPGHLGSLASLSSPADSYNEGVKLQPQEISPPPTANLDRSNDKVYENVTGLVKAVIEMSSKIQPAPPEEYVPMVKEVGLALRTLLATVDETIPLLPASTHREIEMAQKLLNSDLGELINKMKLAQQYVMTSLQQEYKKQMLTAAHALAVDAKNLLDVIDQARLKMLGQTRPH
Sequence of Protein cereblon/Focal adhesion kinase 1 (Homo sapiens) (Q96SW2 whole entry partner): as the sequence (Q96SW2 whole entry, looked up) above

[6] = target: Protein cereblon/Tyrosine-protein kinase BTK (Homo sapiens, UniProt Q06187+Q96SW2); assay: PROTAC activity at CRBN/BTK in human TMD8 cells assessed as induction of BTK degradation incubated for 24 hrs by immunoblotting analysis; type: cell-based
Sequence of Protein cereblon/Tyrosine-protein kinase BTK (Q06187 whole entry): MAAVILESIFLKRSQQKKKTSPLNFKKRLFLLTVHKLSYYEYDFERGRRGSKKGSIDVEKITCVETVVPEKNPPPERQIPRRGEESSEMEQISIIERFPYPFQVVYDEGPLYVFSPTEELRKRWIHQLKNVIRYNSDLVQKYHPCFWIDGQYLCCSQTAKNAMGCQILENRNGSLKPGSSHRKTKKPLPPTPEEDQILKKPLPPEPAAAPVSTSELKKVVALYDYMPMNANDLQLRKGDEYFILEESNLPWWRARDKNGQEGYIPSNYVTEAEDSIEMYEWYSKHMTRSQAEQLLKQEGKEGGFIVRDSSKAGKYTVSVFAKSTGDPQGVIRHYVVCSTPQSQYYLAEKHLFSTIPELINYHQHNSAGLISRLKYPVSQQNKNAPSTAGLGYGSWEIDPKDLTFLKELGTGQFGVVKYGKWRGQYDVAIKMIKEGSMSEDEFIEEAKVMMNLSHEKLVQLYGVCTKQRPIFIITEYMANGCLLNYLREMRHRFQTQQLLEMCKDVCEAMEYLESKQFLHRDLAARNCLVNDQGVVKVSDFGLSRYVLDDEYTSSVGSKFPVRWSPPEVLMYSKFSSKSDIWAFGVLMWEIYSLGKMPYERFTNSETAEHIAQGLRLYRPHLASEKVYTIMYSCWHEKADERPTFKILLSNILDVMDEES
Sequence of Protein cereblon/Tyrosine-protein kinase BTK (Q96SW2 whole entry): as the sequence (Q96SW2 whole entry, looked up) above

[7] = target: von Hippel-Lindau disease tumor suppressor/Androgen receptor (Homo sapiens) (UniProt P10275+P40337); assay: PROTAC activity at VHL/AR in human VCaP cells assessed as maximum degradation at 5 nM relative to control; type: cell-based
Sequence of von Hippel-Lindau disease tumor suppressor/Androgen receptor (Homo sapiens) (P10275 whole entry, looked up): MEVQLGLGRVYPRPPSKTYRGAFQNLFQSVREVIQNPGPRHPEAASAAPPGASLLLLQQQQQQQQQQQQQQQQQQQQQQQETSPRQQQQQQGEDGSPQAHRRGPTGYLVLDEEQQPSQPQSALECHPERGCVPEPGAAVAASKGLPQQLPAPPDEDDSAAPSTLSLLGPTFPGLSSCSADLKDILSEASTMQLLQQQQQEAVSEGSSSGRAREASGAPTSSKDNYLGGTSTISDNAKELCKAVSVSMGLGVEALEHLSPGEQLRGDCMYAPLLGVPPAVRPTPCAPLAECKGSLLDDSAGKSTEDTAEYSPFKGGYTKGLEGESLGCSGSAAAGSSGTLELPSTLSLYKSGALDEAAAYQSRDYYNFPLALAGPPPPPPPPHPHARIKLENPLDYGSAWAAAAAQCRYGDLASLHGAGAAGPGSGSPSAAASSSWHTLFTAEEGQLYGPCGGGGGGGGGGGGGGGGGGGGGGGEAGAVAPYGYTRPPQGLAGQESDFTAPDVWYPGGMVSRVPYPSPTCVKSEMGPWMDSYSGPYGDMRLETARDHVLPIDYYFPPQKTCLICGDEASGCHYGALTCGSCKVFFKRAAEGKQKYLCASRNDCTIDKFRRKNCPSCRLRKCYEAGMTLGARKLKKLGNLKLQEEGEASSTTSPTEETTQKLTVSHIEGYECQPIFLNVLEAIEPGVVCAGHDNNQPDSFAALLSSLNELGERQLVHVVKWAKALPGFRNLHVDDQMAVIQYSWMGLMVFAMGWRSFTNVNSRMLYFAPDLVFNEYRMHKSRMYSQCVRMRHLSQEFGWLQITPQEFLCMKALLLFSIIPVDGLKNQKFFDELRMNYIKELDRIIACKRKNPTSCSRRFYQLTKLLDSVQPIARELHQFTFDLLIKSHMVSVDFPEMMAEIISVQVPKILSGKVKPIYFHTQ
Sequence of von Hippel-Lindau disease tumor suppressor/Androgen receptor (Homo sapiens) (P40337 whole entry, looked up): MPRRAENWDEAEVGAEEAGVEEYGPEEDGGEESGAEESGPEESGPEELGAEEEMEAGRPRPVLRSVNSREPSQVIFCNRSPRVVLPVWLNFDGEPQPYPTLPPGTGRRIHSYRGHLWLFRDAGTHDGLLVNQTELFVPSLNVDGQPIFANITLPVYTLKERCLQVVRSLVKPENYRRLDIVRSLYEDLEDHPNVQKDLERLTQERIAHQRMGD

Emax [1]: > 95% | Emax [2]: > 95% | EC50 [3]: 10 nM | EC50 [4]: 10 nM
SMILES: Cc1ncsc1-c1ccc([C@H](C)NC(=O)C2C[C@@H](O)CN2C(=O)[C@@H](NC(=O)CCCCOc2ccc(/C=N/NC(=O)c3ccc(C(=O)c4c(-c5ccc(O)cc5)sc5cc(O)ccc45)cc3)cc2)C(C)(C)C)cc1 (some centres undefined)

Emax [1]: 98% | EC50 [3]: 1.1 nM
SMILES: Cc1ncsc1-c1ccc([C@H](C)NC(=O)C2C[C@@H](O)CN2C(=O)[C@@H](NC(=O)CCCCOc2ccc(CCNC(=O)c3ccc(C(=O)c4c(-c5ccc(O)cc5)sc5cc(O)ccc45)cc3)cc2)C(C)(C)C)cc1 (some centres undefined)

Activity [5]: 90%
SMILES: CN(c1ncccc1CNc1nc(Nc2ccc(NC(=O)c3cn(CCOCCOCCNc4cccc5c4C(=O)N(C4CCC(=O)NC4=O)C5=O)nn3)cc2)ncc1C(F)(F)F)S(C)(=O)=O (centres undefined)

EC50 [6]: 4 nM
SMILES: Cc1cccc(C)c1Nc1nn(C)c2nc(Nc3ccc4c(c3)CN(CC3CCN(c5ccc6c(c5)C(=O)N(C5CCC(=O)NC5=O)C6=O)CC3)CC4)ncc12 (centres undefined)

SMILES: Cc1ncsc1-c1ccc(CNC(=O)C2C[C@@H](O)CN2C(=O)C(NC(=O)COCCCCOc2ccc(-c3ccc(N4C(=S)N(c5ccc(C#N)c(C(F)(F)F)c5)C(=O)C4(C)C)cc3)cc2)C(C)(C)C)cc1 (some centres undefined)
Emax [7]: 95%
